# Where “and” joins values, the source holds several entries; their conditions need not be identical. Equal entries are not always repeated.
# Tested on: human PBMCs
# Test: LPS-induced cytokine and chemokine levels in human PBMC supernatant (Luminex, ELISA)
# Format: cell-based
# Conditions: for IL-1β % reduction / IL-1β [pg/mL], Mean / IL-1β [pg/mL], individual value / IL-6 % reduction / IL-6 [pg/mL], Mean / IL-6 [pg/mL], individual value / IL-8 % reduction / IL-8 [pg/mL], Mean / IL-8 [pg/mL], individual value / TNF-α % reduction / TNF-α [pg/mL], Mean / TNF-α [pg/mL], individual value: LPS-stimulated human PBMC supernatant
smiles,measurement,setting,value
C[C@@H]1C[C@H]2[C@@H]3CCC4=CC(=O)C=C[C@]4(C)[C@@]3(F)[C@@H](O)C[C@]2(C)[C@@]1(O)C(=O)CO [Dexamethasone],IL-1β % reduction,0.0003 µM,-0.241%
same,"IL-1β [pg/mL], Mean",0.0003 µM,12816 pg/mL
same,"IL-1β [pg/mL], individual value",0.0003 µM,13584 pg/mL and 12048 pg/mL
same,IL-6 % reduction,0.0003 µM,11%
same,"IL-6 [pg/mL], Mean",0.0003 µM,31175 pg/mL
same,"IL-6 [pg/mL], individual value",0.0003 µM,28443 pg/mL and 33908 pg/mL
same,IL-8 % reduction,0.0003 µM,3.74%
same,"IL-8 [pg/mL], Mean",0.0003 µM,2934 pg/mL
same,"IL-8 [pg/mL], individual value",0.0003 µM,2852 pg/mL and 3016 pg/mL
same,TNF-α % reduction,0.0003 µM,-22%
same,"TNF-α [pg/mL], Mean",0.0003 µM,10856 pg/mL
same,"TNF-α [pg/mL], individual value",0.0003 µM,11484 pg/mL and 10228 pg/mL
same,IL-1β % reduction,0.001 µM,-2.29%
same,"IL-1β [pg/mL], Mean",0.001 µM,13078 pg/mL
same,"IL-1β [pg/mL], individual value",0.001 µM,12492 pg/mL and 13663 pg/mL
same,IL-6 % reduction,0.001 µM,15%
same,"IL-6 [pg/mL], Mean",0.001 µM,29537 pg/mL
same,"IL-6 [pg/mL], individual value",0.001 µM,27758 pg/mL and 31316 pg/mL
same,IL-8 % reduction,0.001 µM,7%
same,"IL-8 [pg/mL], Mean",0.001 µM,2887 pg/mL
same,"IL-8 [pg/mL], individual value",0.001 µM,2894 pg/mL and 2879 pg/mL
same,TNF-α % reduction,0.001 µM,26%
same,"TNF-α [pg/mL], Mean",0.001 µM,6648 pg/mL
same,"TNF-α [pg/mL], individual value",0.001 µM,6422 pg/mL and 6874 pg/mL
same,IL-1β % reduction,0.003 µM,3%
same,"IL-1β [pg/mL], Mean",0.003 µM,12382 pg/mL
same,"IL-1β [pg/mL], individual value",0.003 µM,12441 pg/mL and 12322 pg/mL
same,IL-6 % reduction,0.003 µM,23%
same,"IL-6 [pg/mL], Mean",0.003 µM,26733 pg/mL
same,"IL-6 [pg/mL], individual value",0.003 µM,25302 pg/mL and 28163 pg/mL
same,IL-8 % reduction,0.003 µM,16%
same,"IL-8 [pg/mL], Mean",0.003 µM,2739 pg/mL
same,"IL-8 [pg/mL], individual value",0.003 µM,2727 pg/mL and 2751 pg/mL
same,TNF-α % reduction,0.003 µM,36%
same,"TNF-α [pg/mL], Mean",0.003 µM,5707 pg/mL
same,"TNF-α [pg/mL], individual value",0.003 µM,6398 pg/mL and 5017 pg/mL
same,IL-1β % reduction,0.01 µM,12%
same,"IL-1β [pg/mL], Mean",0.01 µM,11212 pg/mL
same,"IL-1β [pg/mL], individual value",0.01 µM,11146 pg/mL and 11278 pg/mL
same,IL-6 % reduction,0.01 µM,26%
same,"IL-6 [pg/mL], Mean",0.01 µM,25776 pg/mL
same,"IL-6 [pg/mL], individual value",0.01 µM,24216 pg/mL and 27336 pg/mL
same,IL-8 % reduction,0.01 µM,23%
same,"IL-8 [pg/mL], Mean",0.01 µM,2621 pg/mL
same,"IL-8 [pg/mL], individual value",0.01 µM,2587 pg/mL and 2655 pg/mL
same,TNF-α % reduction,0.01 µM,34%
same,"TNF-α [pg/mL], Mean",0.01 µM,5893 pg/mL
same,"TNF-α [pg/mL], individual value",0.01 µM,5929 pg/mL and 5857 pg/mL
same,IL-1β % reduction,0.03 µM,36%
same,"IL-1β [pg/mL], Mean",0.03 µM,8206 pg/mL
same,"IL-1β [pg/mL], individual value",0.03 µM,8428 pg/mL and 7983 pg/mL
same,IL-6 % reduction,0.03 µM,46%
same,"IL-6 [pg/mL], Mean",0.03 µM,19008 pg/mL
same,"IL-6 [pg/mL], individual value",0.03 µM,18119 pg/mL and 19897 pg/mL
same,IL-8 % reduction,0.03 µM,24%
same,"IL-8 [pg/mL], Mean",0.03 µM,2601 pg/mL
same,"IL-8 [pg/mL], individual value",0.03 µM,2572 pg/mL and 2630 pg/mL
same,TNF-α % reduction,0.03 µM,61%
same,"TNF-α [pg/mL], Mean",0.03 µM,3547 pg/mL
same,"TNF-α [pg/mL], individual value",0.03 µM,4619 pg/mL and 2475 pg/mL
same,IL-1β % reduction,0.1 µM,49%
same,"IL-1β [pg/mL], Mean",0.1 µM,6554 pg/mL
same,"IL-1β [pg/mL], individual value",0.1 µM,6360 pg/mL and 6748 pg/mL
same,IL-6 % reduction,0.1 µM,46%
same,"IL-6 [pg/mL], Mean",0.1 µM,18754 pg/mL
same,"IL-6 [pg/mL], individual value",0.1 µM,18604 pg/mL and 18905 pg/mL
same,IL-8 % reduction,0.1 µM,39%
same,"IL-8 [pg/mL], Mean",0.1 µM,2364 pg/mL
same,"IL-8 [pg/mL], individual value",0.1 µM,2111 pg/mL and 2616 pg/mL
same,TNF-α % reduction,0.1 µM,76%
same,"TNF-α [pg/mL], Mean",0.1 µM,2172 pg/mL
same,"TNF-α [pg/mL], individual value",0.1 µM,1964 pg/mL and 2380 pg/mL
same,IL-1β % reduction,0.3 µM,47%
same,"IL-1β [pg/mL], Mean",0.3 µM,6792 pg/mL
same,"IL-1β [pg/mL], individual value",0.3 µM,7094 pg/mL and 6491 pg/mL
same,IL-6 % reduction,0.3 µM,53%
same,"IL-6 [pg/mL], Mean",0.3 µM,16544 pg/mL
same,"IL-6 [pg/mL], individual value",0.3 µM,15027 pg/mL and 18061 pg/mL
same,IL-8 % reduction,0.3 µM,26%
same,"IL-8 [pg/mL], Mean",0.3 µM,2569 pg/mL
same,"IL-8 [pg/mL], individual value",0.3 µM,2679 pg/mL and 2458 pg/mL
same,TNF-α % reduction,0.3 µM,67%
same,"TNF-α [pg/mL], Mean",0.3 µM,2969 pg/mL
same,"TNF-α [pg/mL], individual value",0.3 µM,3059 pg/mL and 2880 pg/mL
same,IL-1β % reduction,1 µM,47%
same,"IL-1β [pg/mL], Mean",1 µM,6720 pg/mL
same,"IL-1β [pg/mL], individual value",1 µM,7115 pg/mL and 6325 pg/mL
same,IL-6 % reduction,1 µM,53%
same,"IL-6 [pg/mL], Mean",1 µM,16339 pg/mL
same,"IL-6 [pg/mL], individual value",1 µM,14576 pg/mL and 18103 pg/mL
same,IL-8 % reduction,1 µM,46%
same,"IL-8 [pg/mL], Mean",1 µM,2244 pg/mL
same,"IL-8 [pg/mL], individual value",1 µM,2290 pg/mL and 2198 pg/mL
same,TNF-α % reduction,1 µM,74%
same,"TNF-α [pg/mL], Mean",1 µM,2402 pg/mL
same,"TNF-α [pg/mL], individual value",1 µM,1732 pg/mL and 3073 pg/mL
same,all measured LPS-induced cytokines and chemokines in supernatant,"human PBMCs, 0.0003-1 µM",dose-dependent reductions
